Assay results published in the Kinase Knowledgebase extract (Sharma et al. 2016).
pIC50: −log10 of the molar value.

molecular target: CDK2 (UniProt P24941); test: Enzyme Assay; conditions: not given

Compound	pIC50
c1nc(OCC2CCCCO2)c2nc[nH]c2n1 (stereo not drawn)	< 4.00
Nc1nc(OCC(O)CO)c2nc[nH]c2n1 (stereo not drawn)	< 4.00
Nc1nc(OCc2ccc3ccccc3c2)c2nc[nH]c2n1	< 4.00
Nc1nc(OCC2CCCCO2)c2nc[nH]c2n1 (stereo not drawn)	< 4.00
COCC(COc1nc(N)nc2[nH]cnc12)OC (stereo not drawn)	< 4.00
Nc1nc(OCCc2ccccc2)c2nc[nH]c2n1	< 4.00
COC1OC(COc2nc(N)nc3[nH]cnc23)C2OC(C)(C)OC12 (stereo not drawn)	< 4.00
CC1(C)OCC(COc2nc(N)nc3[nH]cnc23)O1 (stereo not drawn)	< 4.00
CCC(COc1nc(N)nc2[nH]cnc12)(OC)OC	< 4.00
CC(C)C(=O)COc1nc(N)nc2[nH]cnc12	< 4.00
C=CCOc1ncnc2[nH]cnc12	< 4.00

Other lines, results leading:

pIC50	Compound
< 4.00	CCOC(C)(COc1nc(N)nc2[nH]cnc12)OCC
< 4.00	CC1(C)OC2OC(COc3nc(N)nc4[nH]cnc34)C3OC(C)(C)OC3C2O1 (stereo not drawn)
< 4.00	C=CCOc1nc(N)nc2[nH]cnc12
< 4.00	CC(C)C1(COc2nc(N)nc3[nH]cnc23)OCCO1
< 4.00	COC(COc1nc(N)nc2[nH]cnc12)(OC)c1ccccc1
< 4.00	Nc1nc(OCC2COC3(CCCCC3)O2)c2nc[nH]c2n1 (stereo not drawn)
< 4.00	Nc1nc(OCC2COc3ccccc3O2)c2nc[nH]c2n1 (stereo not drawn)
< 4.00	Nc1nc(OCC2CCCC2)c2nc[nH]c2n1
< 4.00	C=C(C)C1CC=C(COc2nc(N)nc3[nH]cnc23)CC1 (stereo not drawn)
< 4.00	Nc1nc(OCC23CC4CC(CC(C4)C2)C3)c2nc[nH]c2n1
< 4.00	Nc1nc(OCc2cccc3ccccc23)c2nc[nH]c2n1

same assay, conditions: concentration not given here

inhibition [%]	Compound
6	Cc1ccc(N=Nc2c(N)nc(N)nc2OCC2CCCCC2)cc1
